Assay results published in ChEMBL document CHEMBL4651402, “Screening of ~5500 FDA-approved drugs and clinical candidates for anti-SARS-CoV-2 activity” (2021).
Values joined by “and” are separate entries in the source; they are usually repeats but may differ in a detail not shown here. Identical values can stand only once.

How the values were obtained:
[1] = system: SARS-CoV-2; experiment: microbe, parasite or virus in culture; details: Severe acute respiratory syndrome coronavirus 2, Vero C1008, 48 h
[2] = system: SARS-CoV-2; experiment: microbe, parasite or virus in culture; assay type: functional, organism-based, Chlorocebus sabaeus, Vero C1008
[3] = system: SARS-CoV-2; details: vero c1008
[4] = in vitro; details: chlorocebus sabaeus, Vero E6 (Vero C1008) cells
[5] = system: Vero C1008; details: chlorocebus sabaeus, vero c1008, 48 h
[6] = Severe acute respiratory syndrome coronavirus 2, Vero C1008, 48 h, read-out: IC50
[7] = Severe acute respiratory syndrome coronavirus 2, Vero C1008, 48 h, read-out: pIC50 (converted)

Row | Molecule | IC50 [1] | IC50 ([1]; read-out: pIC50 (converted)) | IC50 [2, 6] | IC50 [2, 7] | IC50 [3] | pIC50 [3] | CC50 at 48 h ([4]; CC50) | CC50 at 48 h ([4]; pCC50) | CC50 ([5]; 48 h) | pCC50 ([5]; 48 h) | pIC50 ([2]; vero c1008) | IC50 ([2]; vero c1008, read-out: IC50) | CC50 [5] | pCC50 [5]
1 | OC(CNCC(O)C1CCc2cc(F)ccc2O1)C1CCc2cc(F)ccc2O1 (configuration not stated) [NEBIVOLOL] | > 10 µM | > 10 µM | > 100 µM | > 100 µM | > 20 µM | < 4.7 | 8.71 µM | 8.71 µM |  |  |  |  |  | 
2 | CNC[C@H]1C[C@@H]2c3ccccc3Cc3ccc(F)cc3[C@H]2O1 | > 100 µM | > 100 µM | > 100 µM | > 100 µM |  |  | 19.5 µM | 19.5 µM | ~22.4 µM | ~ 4.65 | < 4.3 | > 50.1 µM |  | 
3 | FLUPENTIXOL |  |  |  |  | 8.71 µM and > 20 µM | 5.06 and < 4.7 |  |  |  |  | < 4 | > 100 µM | 7.67 µM | 5.12
4 | COc1cccc([C@@H](C)NCCCc2ccccc2Cl)c1 | 16.6 µM | 16.6 µM | > 100 µM | > 100 µM | > 20 µM | < 4.7 | 28.2 µM | 28.2 µM |  |  |  |  |  | 
5 | COC(=O)C1=C(C)NC(C)=C(C(=O)OC2CCCN(Cc3ccccc3)C2)C1c1cccc([N+](=O)[O-])c1 (configuration not stated) [BENIDIPINE] |  |  | > 100 µM | > 100 µM | > 100 µM |  | 14.8 µM | 14.8 µM |  |  |  |  |  | 
